The source of these data is patent publication US20090082258A1, “Means and Methods for Treating Advanced Stage Neuroblastoma” (priority 2005, published 2009).

Entries after “also recorded” stand apart in the source; their conditions may differ.

In series [1] the test system is SH-EP neuroblastoma cells. Description: Neuronal differentiation of SH-EP neuroblastoma cells (phase contrast microscopy, immunocytochemistry). The series is classed as cell-based. As to the method:
FIG. 1: HC-Toxin induces neuronal differentiation in SH-EP MYCN-single copy neuroblastoma cells. Cells with neurites longer than twice the diameter of the cell body have been deemed as differentiated cells.
(§1) 5×10*4 SH-EP neuroblastoma cells were cultured in RPMI 1640 medium (including 10% FBS, 1% Pen/Strep). After 24 hours of culture, the cells were treated up to 96 h with 10 to 20 nM HC-Toxin or, as solvent control, with methanol (MeOH) at 37° C., 5% CO2. The morphological changes of the cells were investigated using phase contrast microscopy. After 36 h of treatment, neurite outgrowth was observed. After 72 h of treatment, said neurite outgrowth reached its maximum and was constant if treatment was prolonged (not shown). […] More than 95% of the SH-EP neuroblastoma cells differentiate morphologically when treated with 15 nM HC-Toxin (see FIG. 1c).

Series [2] concerns SH-EP neuroblastoma cells. Description: Proliferation of SH-EP neuroblastoma cells. The series is classed as cell-based. The following applies: 10 to 20 nM. As to the method:
(§2) FIG. 2: Influence of HC-Toxin upon proliferation, cell cycle, and apoptosis of SH-EP neuroblastoma cells.
as §1
(§3) An increase in apoptotic cells from 5% to 20% was observed after 48 h to 72 h of HC-toxin treatment in a dose dependent manner (FIG. 2c).

Series [3] relates to SH-EP neuroblastoma cells. Description: Cell cycle of SH-EP neuroblastoma cells. To be noted: 15 nM vs control cells. The class given is cell-based. As to the method: as §2, §3
Series [4] relates to SH-EP neuroblastoma cells. The experiment in a line: Apoptosis of SH-EP neuroblastoma cells. The class given is cell-based. To be noted: FIG. 2c. As to the method: as §2, §3
Series [5] deals with primary skin fibroblasts. Description: Proliferation of primary non-transformed skin fibroblasts. The class given is cell-based, human. To be noted: 10-20 nM, same conditions as SH-EP. As to the method: (§4) FIG. 3: Influence of HC-Toxin upon proliferation and cell cycle of primary non-transformed skin fibroblasts.
(§5) In order to determine the effects of HC-Toxin on “normal” body cells, primary skin fibroblasts were treated under the same conditions.

Series [6] has as its system primary skin fibroblasts. The experiment in a line: Cell cycle of primary non-transformed skin fibroblasts. The following applies: 15 nM vs methanol control. The series is classed as cell-based, human. As to the method: as §4, §5
Series [7] deals with MYCN amplified neuroblastoma cells (Be(2)-C). Description: Proliferation of MYCN amplified neuroblastoma cells Be(2)-C. The class given is cell-based. The following applies: stronger inhibition than in SH-EP. As to the method: (§6) FIG. 4: Influence of HC-Toxin upon the proliferation of MYCN amplified neuroblastoma cells and cells, which overexpress MYCN. (a) BE(2)-C neuroblastoma cells, (b) WAC2 neuroblastoma cells, and (c) Tet21N neuroblastoma cells.
(§7) MYCN amplified neuroblastoma cells (Be(2)-C), MYCN stably transfected SH-EP-neuroblastoma cells (WAC2) as well as SH-EP cells having an tetracycline inducible MYCN (Tet21N) were treated by HC-Toxin.

Series [8] concerns MYCN stably transfected SH-EP-neuroblastoma cells (WAC2). Description: Proliferation of MYCN stably transfected SH-EP neuroblastoma cells WAC2. The class given is cell-based. The following applies: stronger inhibition than in SH-EP. As to the method: as §6, §7
Series [9] deals with SH-EP cells having an tetracycline inducible MYCN (Tet21N). Description: Proliferation of SH-EP cells with tetracycline inducible MYCN (Tet21N). The class given is cell-based. To be noted: stronger inhibition than in SH-EP. As to the method: as §6, §7
In series [10] the test system is nuclear histone deacetylases. The experiment in a line: Accumulation of acetylated histone H4 in SH-EP cells (Western blot). The following applies: 6 h, 15 mM HC-Toxin [sic]. The series is classed as cell-based. As to the method: The cells were treated for 6 hours with HC-toxin or the indicated histone deacetylase inhibitors as well as all-trans retinoic acid. Whole-cell extracts were obtained and subjected to Western-Blot analysis using an antibody, which specifically recognizes acetylated histone H4 (H4 Acetyl).
SH-EP-neuroblastoma cells were treated with […] HC-Toxin for 6 h. Subsequently, accumulation of acetylated histone H4 was investigated.

Series [11] deals with various tumour cells. The experiment in a line: Antitumoral effects in tumour cells, general statements and comparison with other agents. The class given is cell-based. The following applies: higher concentration. As to the method: The differentiation inducing agent all-trans retinoic acid has to be administered in a 1000-fold higher concentration compared to HC-toxin, acts differently as compared with compounds of the general formula (I) and causes side effects known as the retinoic acid syndrome.
The compounds having a structure as shown in the general formula (I) elicit the aforementioned antitumoral effects in an extremely low dosage already, i.e. at nanomolar concentrations (5-20 nM), in various tumour cells. The mode of action of the compounds apparently encompasses inhibition of histone deacetylases. This finding is supported by the observation that treatment of MYCN single copy and amplified neuroblastoma cells with a compound of the present invention in nanomolar concentration (e.g. 15 nM) leads to the accumulation of acetylated H4-histones within one to six hours being an indicator for a histone deacetylase inhibitor.

Series [12] concerns various tumour cells. The following applies: cited from earlier work.

For `CC1NC(=O)C(C)NC(=O)C2CCCN2C(=O)C(CCCCCC(=O)C2CO2)NC1=O` (stereo not drawn) [HC-Toxin, Helminthosporium carbonum toxin], the “SH-EP neuroblastoma cells that differentiate morphologically” value in [1] (15 nM HC-Toxin, neurites longer than twice the diameter of the cell body) is “More than 95%”. The “time of treatment after which neurite outgrowth reached its maximum” value in [1] (10 to 20 nM, SH-EP cells) stood at 72 h. In addition, the “time of treatment after which neurite outgrowth was observed” value in series [1] (10 to 20 nM, SH-EP cells) worked out at 36 h. The “inhibition of SH-EP neuroblastoma cell proliferation” value in series [2] is given as “inhibits cell proliferation in a concentration dependent manner; also recorded: concentration-dependent inhibition”. Also, the “cell cycle distribution of SH-EP cells” value in series [3] is “accumulation of the HC-Toxin treated cells in the G0/1 phase”. Further, the “induction of apoptosis in SH-EP cells” value in series [4] was “induces apoptosis in a concentration dependent manner”. Further, the “proliferation of primary skin fibroblasts” value in series [5] is given as “No significant changes”; in [5] (listed as HC-toxin) it was “has no influence upon the proliferation”. The “cell cycle of primary skin fibroblasts” value in series [6] is recorded as “does not alter the cell cycle; also recorded: No significant changes”. The “inhibition of proliferation of Be(2)-C cells” value in [7] is on record as “efficiently inhibits proliferation”. The “inhibition of proliferation of WAC2 cells” value in series [8] is “efficiently inhibits proliferation”. Further, in series [9], the “inhibition of proliferation of Tet21N cells” value is reported as “efficiently inhibits proliferation”. Also, the “accumulation of acetylated histone H4” value in [10] is “induces hyperacetylation of histone H4”; in series [10] (listed as iHC-Toxin), “induce accumulation of acetylated histone H4”.
Turning to `CC1=C(/C=C/C(C)=C/C=C/C(C)=C/C(=O)O)C(C)(C)CCC1` [all-trans retinoic acid, reference compound], the “accumulation of acetylated histone H4” value in series [10] is recorded as “no induction of hyperacetylation of histone H4”. For the same molecule, the “concentration to be administered compared to HC-toxin” value in [11] is listed as 1000 fold.
As for `CC(/C=C/C(=O)NO)=C\[C@@H](C)C(=O)c1ccc(N(C)C)cc1` [trichostatin A], in [12], the cytotoxic effects result is “strong cytotoxic effects”.
As for `CCCC(CCC)C(=O)O` [valproic acid], the efficient concentration result in series [12] (not achievable in vivo) is given as “only efficient in millimolar concentrations”.
